In PubChem BioAssay AID1159563 (GlaxoSmithKline (GSK), 2015):
Active and inactive are the calls of the source. The rule behind the calls is not given here.

The compounds below were run on HepG2 cytotoxicity (assay: HepG2 cell cytotoxicity, cytotoxicity control (AID 1159563)).

SMILES | IC50
O=C(CCCNC(=O)c1ccc(Cl)cc1)Nc1nc(-c2ccccn2)cs1 | > 100 µM (inactive)
CNS(=O)(=O)c1ccccc1Nc1nc(Nc2ccnn2C)ncc1Cl | 50 µM
O=C(Nc1ncc([N+](=O)[O-])s1)C1CC1 | > 100 µM (inactive)
CNc1cc(C)nc(C2CN(C(=O)c3n[nH]c4ccccc34)CCO2)c1 (configuration not stated) | > 100 µM (inactive)
c1ccc2c(CCOc3nccnc3-c3ccncc3)c[nH]c2c1 | > 100 µM (inactive)
N#Cc1ccc(Br)cc1[N+](=O)[O-] | 20 µM
Cc1ccc(C)c(OC2CCN(C(=O)C(C)n3ccnc3)CC2)c1 (configuration not stated) | > 100 µM (inactive)
Nc1nccc(-c2csc(Nc3ccc(Cl)cc3)n2)n1 | > 100 µM (inactive)
O=[N+]([O-])c1ccc(-c2nnn(-c3cccnc3)n2)o1 | > 100 µM (inactive)
CNc1nc(C)nc(N2CCc3cc(C(=O)NCc4ccc(-c5nccn5C)cc4Cl)ccc32)n1 | 32 µM
COCCn1cnc2cc(NC(=O)C3CCCCC3)cc(C(=O)N3CCc4sccc4C3)c21 | > 100 µM (inactive)
O=C(COc1ccccc1)Nc1ccccc1C(=O)Nc1nccs1 | > 100 µM (inactive)
CN1CCCN(C(=O)c2ccc(N3CCCC3)cc2Cl)CC1 | > 100 µM (inactive)
Cc1ccccc1NS(=O)(=O)c1ccc2[nH]cc(C(=O)NC3CCCC3)c(=O)c2c1 | 25 µM
COc1ccc(NS(=O)(=O)c2cc(NC(=O)c3ccc([N+](=O)[O-])s3)ccc2OC)cc1 | > 100 µM (inactive)
CC(C)(C)C(O)(CCc1ccc(Cl)cc1)Cn1cncn1 (configuration not stated) | > 100 µM (inactive)
Cc1ccccc1OCC(=O)N1CCCN(c2cccnn2)CC1 | > 100 µM (inactive)
O=C1c2cnc(N3CCCC3)nc2CN1c1ccc2c(c1)OCO2 | > 100 µM (inactive)
Clc1ccc(OCCN2CCCCC2c2cccnc2)c(Cl)c1 (configuration not stated) | 79 µM
CN(Cc1nc2ccc(C(=O)NCC3CCCCC3)cc2[nH]1)C1CCCc2cccnc21 (configuration not stated) | 16 µM
O=C(NCCc1cccnc1)c1ccc(-c2ccccc2F)o1 | > 100 µM (inactive)
O=c1[nH]cnc2c([C@@H]3O[C@H](CO)[C@@H](O)[C@H]3O)[nH]nc12 | > 100 µM (inactive)
CNc1cc(Cn2c(C(=O)c3cc(C)cc(Cl)c3)c(C(C)C)c(=O)[nH]c2=O)ccn1 | > 100 µM (inactive)
Cc1occc1C(=O)Nc1ccccc1C(=O)Nc1nccs1 | > 100 µM (inactive)

SMILES | IC50
O=C(Nc1cccc(Cl)c1)Nc1ccc([N+](=O)[O-])cc1Cl | 32 µM
Cc1ccc(Nc2nc(N)nc(CNC(c3nc4ccccc4[nH]3)C(C)C)n2)cc1 (configuration not stated) | > 100 µM (inactive)
CCn1c(-c2nonc2N)nc2c([C@@H](C)O)ncc(O[C@H](CN)c3ccccc3)c21 | 79 µM
COc1ccc(CNc2cc(C3CC3)nc(-c3nccn3C)n2)cc1 | 25 µM
CN1CCN(c2nc(-c3ccc(Cl)cc3)c3c(N)n(C)nc3n2)CC1 | 79 µM
CNc1nc(C)nc(N2CCc3cc(C(=O)NCc4ccc(-c5ccn[nH]5)cc4Cl)ccc32)n1 | > 100 µM (inactive)
Cc1cc(-c2cccc3ccccc23)nc2nc(N)nc(N)c12 | 50 µM
CN(C)Cc1ccc(-c2ccc(S(=O)(=O)NCC3CCCO3)c(F)c2)cc1 (configuration not stated) | > 130 µM (inactive)
COCCn1c(-c2ccc3c(c2)OCO3)cnc1NCc1ccccc1OC | 40 µM
COc1cccc(NS(=O)(=O)c2ccc3[nH]cc(C(=O)NCCC(C)C)c(=O)c3c2)c1 | 32 µM
Cc1cc(C#N)c([N+](=O)[O-])cc1Br | 32 µM
O=C(CC1(O)C(=O)N(Cc2cccs2)c2ccc(Br)cc21)c1cccnc1 (configuration not stated) | 63 µM
Cc1nc(N2CC(C)OC(C)C2)sc1C(=O)Nc1ccc2c(c1)OCO2 (configuration not stated) | > 100 µM (inactive)
COc1cccc(S(=O)(=O)Nc2ccc3c(c2)CC(N2CCC(NC(=O)C4CC4)CC2)C3)c1 (configuration not stated) | > 100 µM (inactive)
Nc1nc(-c2ccccn2)nc(-n2nc(-c3cccc(C(F)(F)F)c3)cc2N)n1 | 20 µM
Cc1nn(-c2nc(N)nc(-c3ccccn3)n2)c(C)c1Cc1ccccc1 | > 100 µM (inactive)
COc1cccc(-c2c(C)nn(-c3nc(N)nc(-c4ccccn4)n3)c2N)c1 | > 100 µM (inactive)
O=C1NCCn2ccc(Nc3nc(NC4CCC(O)CC4)ncc3Cl)c21 (configuration not stated) | > 100 µM (inactive)
Cc1ccc(S(=O)(=O)Nc2ccc(CN3CCN(C(=O)c4cccc(C#N)c4)CC3)cc2)cc1 | > 100 µM (inactive)
CC1=NN(C(=O)CCn2cnc([N+](=O)[O-])n2)C(O)(C(F)(F)F)C1 (configuration not stated) | > 100 µM (inactive)
C[C@@H](Oc1cc(-n2cnc3ccc(C(O)CO)cc32)sc1C(N)=O)c1ccccc1C(F)(F)F (some centres not stated) | > 10 µM (inactive)
Cc1ccc(Nc2nc(C3CCCN3Cc3ccn[nH]3)cs2)nc1 (configuration not stated) | 32 µM
O=C(NCCCn1cnc2ccccc21)c1ccc(NC(=O)c2ccco2)cc1 | 16 µM
Cn1nc([N+](=O)[O-])nc1Oc1ccc(C(=O)c2ccccc2)cc1 | > 100 µM (inactive)

SMILES | IC50
CCCCn1c(=O)c2c(N)onc2n(CCCC)c1=O | 50 µM
COc1ccc(C)cc1-c1csc(NC(=O)C(C)n2ccnc2)n1 (configuration not stated) | > 100 µM (inactive)
C=CC[C@@H]1CC=C[C@@H](C)N1C(=O)CCc1nnc(-c2ccc3c(c2)OCO3)o1 | > 100 µM (inactive)
CC(C)C[C@H](NC(=O)c1ccc(-c2ccccc2)o1)C(=O)NC1(C#N)CC1 | > 100 µM (inactive)
COc1ccccc1C1CC(c2ccc(NS(C)(=O)=O)cc2)=NN1C(=O)c1cccs1 (configuration not stated) | > 100 µM (inactive)
Cc1cc2nc(CN(C)Cc3ncccc3C)[nH]c2cc1C | 40 µM
Cc1ccccc1NS(=O)(=O)c1ccc2[nH]cc(C(=O)NC3CCCCC3)c(=O)c2c1 | 32 µM
CCN(CC)c1nc(N(C)C)nc2c1CN(Cc1ccccc1)CC2 | 63 µM
O=C(Nc1nc(-c2ccccn2)cs1)c1ccc(S(=O)(=O)N2CCCCC2)cc1 | 63 µM
Cc1[nH]c2ccccc2c(=O)c1Cc1c(C)[nH]c2ccccc2c1=O | > 100 µM (inactive)
CCN(CC)S(=O)(=O)c1ccc(C)c(NC(=O)c2cc(Cl)c3c(c2)OCO3)c1 | > 100 µM (inactive)
CCN(CC)S(=O)(=O)c1ccc(C(=O)Nc2cc(C)nn2-c2nc(C)c(C)c(=O)[nH]2)cc1 | > 100 µM (inactive)
CS(=O)(=O)c1cccc(CNC(=O)c2cncc(N3CCN(c4ccc(F)cc4)CC3)c2)c1 | > 100 µM (inactive)
CN(C)c1ccc(-c2cc3nccnc3c(OC[C@H]3CCCNC3)n2)cn1 | 63 µM
Cc1nn(-c2nc3ccccc3[nH]2)c2c1C(c1ccc(O)cc1)CC(=O)N2 (configuration not stated) | 25 µM
N#Cc1cccc(CN2CCC(N(Cc3cccnc3)C(=O)c3cc(F)c(F)cc3F)CC2)c1 | > 100 µM (inactive)
Cc1ccc(NC(=O)C(C)n2nc([N+](=O)[O-])c(Br)c2C)cc1Cl (configuration not stated) | 79 µM
COc1ccc(CNc2nsc3ccccc23)cc1OC | 50 µM
CCCc1cc(C(=O)Nc2ncc(-c3cccc(Br)c3)n2C)n[nH]1 | > 100 µM (inactive)
Cc1[nH]n2c(=O)c3c(nc2c1-c1ccc(F)cc1)CCCC3 | > 100 µM (inactive)
COc1ccccc1C=CCN1C[C@H]2CCC[C@@H](C1)C2(O)c1cccnc1 (some centres not stated) | > 100 µM (inactive)
CC(C)Nc1nc(Cl)nc2ccccc12 | 40 µM
O=c1[nH]c(NCCCNCc2cc(Br)cc(Br)c2)nc2ccsc12 | 50 µM
FC(F)(F)c1cc(C2CCCN(Cc3c[nH]c4ccccc34)C2)nc2ncnn12 (configuration not stated) | > 100 µM (inactive)
